From US10487348B2, “3-alpha-hydroxysteroid dehydrogenase mutants and process for the preparation of ursodeoxycholic acid” (Pharmazell GmbH, priority 2014, dated 2019)
Positions count from the first letter of the chain named.

Assays:
[1] = target: T1, Comamonas testosteroni 3α-HSDH mutant [T188G], N-terminal hexahistidine tag (Comamonas testosteroni, UniProt P80702, T188G); experiment: Kinetics of 3α-HSDH [T188G], N-terminal His tag; type: biochemical; conditions: DHCA
T1 sequence (P80702 1-257 T188G): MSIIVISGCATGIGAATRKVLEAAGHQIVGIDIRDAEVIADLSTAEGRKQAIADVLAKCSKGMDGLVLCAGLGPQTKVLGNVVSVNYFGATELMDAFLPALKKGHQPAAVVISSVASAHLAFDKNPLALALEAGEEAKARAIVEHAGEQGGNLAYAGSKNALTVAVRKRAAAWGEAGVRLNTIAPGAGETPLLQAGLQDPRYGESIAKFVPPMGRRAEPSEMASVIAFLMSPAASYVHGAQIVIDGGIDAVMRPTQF
Experimental: The activity of the 3α-HSDH and of the mutants was determined using a photometric assay, where the decrease in absorbance was measured at 340 nm over a period of 30 seconds.
The targeted exchange of amino acid radicals was performed analogously to Example 2B.
Following cultivation and expression, the cells were harvested, and the specific activities of the cell-free crude extracts were determined at substrate concentrations of 10 mM DHCA. The enzyme variants where the activity measurements with crude extract enzyme were most promising were purified by means of Ni-NTA chromatography, and their kinetic constants were determined by measurements with different DHCA concentrations of between 10 μM and 20 mM. In addition, an expression check by means of SDS PAGE was carried out for all mutants.

[2] = target: T2, Comamonas testosteroni 3α-HSDH, wild type, C-terminal 3×His tag (Comamonas testosteroni, UniProt P80702); experiment: Michaelis-Menten kinetics of 3α-HSDH with 3×His tag; conditions: His tag length 3; DHCA 10 μM-10 mM; NADH 0.2 mM; purified
T2 sequence (P80702 with tags, fused parts or gaps): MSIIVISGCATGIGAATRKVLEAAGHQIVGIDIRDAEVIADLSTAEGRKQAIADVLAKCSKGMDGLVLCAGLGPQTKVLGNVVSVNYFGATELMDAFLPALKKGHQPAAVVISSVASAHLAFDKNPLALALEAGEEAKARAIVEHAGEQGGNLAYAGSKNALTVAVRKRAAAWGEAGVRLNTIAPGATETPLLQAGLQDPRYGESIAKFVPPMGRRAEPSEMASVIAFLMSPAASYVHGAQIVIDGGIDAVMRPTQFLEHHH
Excerpt: The His-tag allows for very simple purification of the HSDH protein since this sequence is bound with high specificity by specific chromatographic material (NTA (Ni-nitrilotriacetate)-modified support material, loaded with divalent nickel ions, for example “His Pur Ni-NTA” (Nimagen B. V., Nijmegen, The Netherlands)). To this end, the cell-free crude extract is applied to a dropping column comprising this material, which dropping column has previously been equilibrated with the disruption buffer (3 to 5 column volumes). Weakly binding protein was removed by washing with 3 to 5 column volumes of wash buffer (20 mM imidazole, 50 mM sodium phosphate, 300 mM NaCl, pH 8). […] The process was carried out at room temperature. The imidazole which was present was to be removed by buffer exchange.
Following expression (25° C., 0.5 mM, IPTG, 20 hours), the protein was purified, and the expression and the purification were checked by means of an SDS gel. […] The NADH concentration was 0.2 mM. Purified protein was employed in the measurements.

[3] = target: T3, Comamonas testosteroni 3α-HSDH mutant [T188A], N-terminal hexahistidine tag (Comamonas testosteroni, UniProt P80702, T188A); experiment: Kinetics of 3α-HSDH [T188A], N-terminal His tag
T3 sequence (P80702 1-257 T188A): T1 sequence (P80702 1-257 T188G) with G188A

[4] = target: T4, Comamonas testosteroni 3α-HSDH, wild type, without His tag, SEQ ID NO:4 (Comamonas testosteroni, UniProt P80702); experiment: Michaelis-Menten kinetics of wild-type 3α-HSDH without His tag
T4 sequence (P80702 1-257): T1 sequence (P80702 1-257 T188G) with G188T

[5] = target: T5, Comamonas testosteroni 3α-HSDH mutant [L68A], N-terminal hexahistidine tag (Comamonas testosteroni, UniProt P80702, L68A)
T5 sequence (P80702 1-257 L68A): T1 sequence (P80702 1-257 T188G) with L68A, G188T
Experimental: After cultivation and expression, the proteins were purified by means of Ni-NTA chromatography, the specific activities were determined and their kinetic constants were determined.

[6] = target: T6, Comamonas testosteroni 3α-HSDH dual mutant [L68A/T188S], N-terminal hexahistidine tag (Comamonas testosteroni, UniProt P80702, L68A/T188S)
T6 sequence (P80702 1-257 L68A/T188S): T1 sequence (P80702 1-257 T188G) with L68A, G188S

[7] = Table 14, substrate DHCA, tag N, apparent values
[8] = Table 14, substrate DHCA, tag N, NADH 0.2 mM, apparent values

C[C@H](CCC(=O)O)[C@H]1CC[C@H]2[C@@H]3C(=O)C[C@@H]4CC(=O)CC[C@]4(C)[C@H]3CC(=O)[C@]12C [DHCA, dehydrocholic acid]
substrate excess inhibition [1]: No pronounced substrate excess inhibition | kcat [2]: 6.5 ± 2.1 s⁻¹ | vmax [2]: 14.3 ± 4.8 U/mg | kcat [3, 7]: 130.3 s⁻¹ | vmax [3, 7]: 274.0 ± 11.6 U/mg | remaining activity at 20000 µM ([3]; read-out: residual activity): ~20% | vmax ([4]; Table 14, substrate DHCA, no tag, apparent values): 134 ± 3.8 U/mg | residual activity ([4]; after increasing DHCA further above approximately 1 mM, substrate excess inhibition): 10-20% | kcat [5, 8]: 138.0 s⁻¹ | vmax [5, 8]: 290.0 ± 45.4 U/mg | remaining activity at 1000 µM ([5]; read-out: residual activity): ~15% | remaining activity at 10000 µM ([5]; read-out: residual activity): ~8% | kcat [6, 7]: 91.8 s⁻¹ | vmax [6, 7]: 193.2 ± 11.4 U/mg | remaining activity at 10000 µM ([6]; read-out: residual activity): ~20%
